One molecule from patent publication US9962402B2, “Healing composition for topical application” (BIOPASS S.A., priority 2011, dated 2018) can be followed below.

This assay concerns wound healing. As to the kind of experiment: Effect on wound healing (discovered in the context of the invention, no method given). In kind it is in vivo. As to conditions: present in a gel.

Entries after “also recorded” stand apart in the source; their conditions may differ.

Turning to `CCOCCOCCO` [ethoxydiglycol], the “effect on wound healing” value is on record as “significantly slows wound healing; also recorded: significantly delays wound healing”.
